In publication PMC4169579, “Proteolytic Activity of Prostate-Specific Antigen (PSA) towards Protein Substrates and Effect of Peptides Stimulating PSA Activity” (PLoS ONE, 2014):
Positions of bridges follow the written chain, without caps; N, C: chain ends. Residues, ends and D or L forms follow the SMILES beside them. No end group written: not given here.

What was measured:
[1] = biological target: T1, PSA (Homo sapiens, UniProt P07288); test: Enzyme kinetics of PSA with fluorogenic peptide substrate; format: biochemical
T1 construct: from tissue; host or cells: pooled human seminal fluid
T1 sequence (P07288 25-261): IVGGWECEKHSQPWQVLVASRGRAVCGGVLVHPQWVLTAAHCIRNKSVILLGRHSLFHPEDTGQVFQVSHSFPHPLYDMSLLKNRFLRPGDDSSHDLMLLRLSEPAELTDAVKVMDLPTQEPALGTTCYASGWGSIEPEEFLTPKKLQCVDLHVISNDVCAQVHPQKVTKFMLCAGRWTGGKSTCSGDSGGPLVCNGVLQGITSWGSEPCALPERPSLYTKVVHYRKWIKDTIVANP
Procedure: (§1) The major form of active PSA (isoform PSA-B) was purified from pooled human seminal fluid by immunoaffinity chromatography followed by anion exchange chromatography. Semenogelins I and II were isolated from human seminal fluid as previously described, but instead of alkylating the proteins, the reducing agent 30 mM dithiothreitol (Sigma-Aldrich, St. Louis, MO) was included in all buffers during purification. Semenogelins were stored in the purification buffer containing 2 M urea and 5 mM EDTA at −70°C. Prior to cleavage by PSA, the buffer was exchanged to 50 mM Tris, pH 7.7, containing 0.15 M NaCl (TBS), with Amicon Ultra centrifugal filter units (MW cut-off 30 kDa) (Millipore, Cork, Ireland) at 4°C, and protein concentration was determined by measuring absorbance at 280 nm.
(§2) The proteolytic activity of PSA towards small peptide substrates was compared with two different substrates. Both assays were performed in 96-well microplates (PerkinElmer, Turku, Finland) with duplicates in two separate experiments (n = 2) in TBS buffer containing 1 g/l bovine serum albumin (0.1% BSA-TBS). The chromogenic chymotrypsin substrate S-2586 (MeO-Suc-Arg-Pro-Tyr-pNA·HCl) (Chromogenix Instrumentation Laboratory, Milan, Italy) at 0.125–5 mM concentration or 0.125–2 mM fluorogenic PSA substrate 4-morpholinecarbonyl-HSSKLQ-AMC (7-amido-4-methylcoumarin) (custom peptide from JPT Peptide Technologies GmbH, Berlin, Germany) were added to the wells together with 175 nM (5 µg/ml) PSA. The absorbance was measured at 405 nm immediately and at 5 min intervals for 30 min and fluorescence at 355/460 nm (excitation/emission) after 10 min, 20 min, 40 min, 1 h, 2 h and 4 h incubation at room temperature with a Victor 1420 Multilabel plate reader (PerkinElmer). In the fluorogenic assays all wells contained 5% dimethyl sulfoxide (DMSO).
The maximum velocity of the reaction (Vmax) and the Michaelis constant (Km), i.e., substrate concentration at which the reaction rate is half of the maximum, were evaluated for PSA with both peptide substrates using Sigma Plot 11 with the Enzyme Kinetics Module 1.3 (SYSTAT Software, Inc., San Jose, CA) and the catalytic constant (kcat), i.e., the number of substrate molecules converted to product per time unit, was calculated from the equation kcat = Vmax/[PSA]. The absorbance was converted to molar concentration with the Lambert-Beer equation (A = εcl), using the molar absorptivity of pNA (εpNA = 8800 M^−1cm^−1). Fluorescence (counts per second, cps) was transformed to molar concentrations with SigmaPlot by means of a standard curve for 7-amido-4-methylcoumarin (AMC, Sigma-Aldrich).

[2] = biological target: T1, PSA; test: Stimulation of PSA activity by peptides, fluorogenic substrate; format: biochemical; conditions: 350 nM PSA preincubated with 0.35–350 µM peptide 30 min room temperature, 0.3 mM fluorogenic substrate, 0.75% DMSO, mean ± SD, n = 3; for Emax: read-out: Stimulation (maximal stimulation capacity as compared to PSA alone, Vmax (peptide+PSA)/V(PSA)); for EC50: read-out: [peptide]½Vmax (peptide concentration with half-maximal stimulation)
Procedure: as §1
(§3) Peptides that bind to PSA and stimulate its activity have previously been identified by phage display. […] The purity of the peptides as determined by HPLC was over 95% in all batches. We have not observed any significant variation in the capacity of the peptides to stimulate the PSA activity between different peptide batches and suppliers.
The proteolytic activity of PSA towards small peptide substrates was compared with two different substrates. Both assays were performed in 96-well microplates (PerkinElmer, Turku, Finland) with duplicates in two separate experiments (n = 2) in TBS buffer containing 1 g/l bovine serum albumin (0.1% BSA-TBS). […] The absorbance was measured at 405 nm immediately and at 5 min intervals for 30 min and fluorescence at 355/460 nm (excitation/emission) after 10 min, 20 min, 40 min, 1 h, 2 h and 4 h incubation at room temperature with a Victor 1420 Multilabel plate reader (PerkinElmer). […]
The effect of the PSA-stimulating peptides on the activity of PSA was characterized with chromogenic and fluorogenic substrates in two (n = 2) and three (n = 3) separate experiments, respectively. […] Then 0.2 mM chromogenic or 0.3 mM fluorogenic substrate was added and absorbance or fluorescence was measured as described above. […] The velocity of the reaction (V) was calculated from the change of absorbance/min or fluorescence/min at the linear phase of the reaction and converted to molar concentration as described above. Vmax (peptide + PSA), i.e., the maximal velocity of the reaction with increasing peptide concentrations and given PSA and substrate concentrations, was determined using SigmaPlot, fitting the data to f = y0+a*(1−exp(−b*x)) using non-linear regression. The maximal stimulatory capacity of the peptide, Vmax (peptide+PSA)/V(PSA), was calculated. The peptide concentrations at which the stimulation of PSA was half of the maximum ([peptide]½Vmax) and at which PSA activity was increased two-fold when compared to PSA alone ([peptide]2V) were also determined.

[3] = biological target: T1, PSA; test: Stimulation of PSA activity by peptides, chromogenic substrate; format: biochemical; conditions: for Emax / EC50: 350 nM PSA preincubated with 0.35–350 µM peptide 30 min room temperature, 0.2 mM chromogenic substrate S-2586, mean ± SD, n = 2; for Emax: read-out: Stimulation (maximal stimulation capacity as compared to PSA alone, Vmax (peptide+PSA)/V(PSA)); for EC50: read-out: [peptide]½Vmax (peptide concentration with half-maximal stimulation)
Procedure: as §1, §3, §2
The effect of the PSA-stimulating peptides on the activity of PSA was characterized with chromogenic and fluorogenic substrates in two (n = 2) and three (n = 3) separate experiments, respectively. PSA (350 nM) was first preincubated with peptides (0.35–350 µM) for 30 min at room temperature. Then 0.2 mM chromogenic or 0.3 mM fluorogenic substrate was added and absorbance or fluorescence was measured as described above. Fluorogenic assays with the peptides were performed in black 384-well microplates (Corning Inc., Corning, NY) and all wells contained 0.75% DMSO. The velocity of the reaction (V) was calculated from the change of absorbance/min or fluorescence/min at the linear phase of the reaction and converted to molar concentration as described above. Vmax (peptide + PSA), i.e., the maximal velocity of the reaction with increasing peptide concentrations and given PSA and substrate concentrations, was determined using SigmaPlot, fitting the data to f = y0+a*(1−exp(−b*x)) using non-linear regression. The maximal stimulatory capacity of the peptide, Vmax (peptide+PSA)/V(PSA), was calculated. The peptide concentrations at which the stimulation of PSA was half of the maximum ([peptide]½Vmax) and at which PSA activity was increased two-fold when compared to PSA alone ([peptide]2V) were also determined.

[4] = biological target: T1, PSA; test: Surface plasmon resonance binding of peptides to PSA; conditions: SPR, peptide 1.2–600 µM, PBS pH 7.4, 25°C
Procedure: The binding kinetics and affinity of the peptides stimulating the activity of PSA were studied by surface plasmon resonance (SPR) on a Biacore T100 instrument using Biacore T100 Control Software 2.0.3 (both from GE Healthcare, Uppsala, Sweden). PSA (20 µg/ml, 0.7 µM) and α-chymotrypsin (20 µg/ml, 0.8 µM) were covalently immobilized on the Series S Sensor Chip CM5 (GE Healthcare) by using amine coupling in 10 mM sodium acetate buffer, pH 5.0. The immobilization levels varied in different experiments between 2000–3900 resonance units (RU) for PSA and 1400–2500 RU for chymotrypsin. Chymotrypsin was used as a reference for PSA, i.e., the binding of peptides to the chymotrypsin surface was subtracted as a non-specific interaction from the binding of peptides to the PSA surface in all measurements.
Binding to PSA was studied at various peptide concentrations (1.2–600 µM) in phosphate buffered saline (PBS), pH 7.4 (Lonza, Verviers, Belgium), containing 6.7 mM PO4 and 0.15 M NaCl, with a flow rate of 40 µl/min at 25°C. Contact time of the peptides with PSA was 60 s and dissociation time 180 s. In all other steps except the peptide binding the running buffer was supplemented with 0.005% surfactant P20 (GE Healthcare). The chip was washed after each measurement cycle with the running buffer, which removed all peptides. The binding data were analyzed using Biacore T100 Evaluation software 2.0.3. […]

[5] = biological target: T1, PSA; test: Proteolytic cleavage of protein substrates by PSA (SDS-PAGE, silver staining); format: biochemical; conditions: 0.2 µM PSA, 1 µM substrate, TBS, 37°C; disappearance of full-length band
Procedure: as §1
(§4) Protein LoBind tubes (Eppendorf AG, Hamburg, Germany) were used in all protein degradation experiments.
(§5) PSA (0.2–1 µM) and 0.5–1 µM of each protein substrate were incubated at 37°C for 22 h in TBS buffer. During the incubation, samples of 15 µl were taken at different time points: 0 min, 10 min, 30 min, 2 h, 5 h and 22 h, and stored at −20°C before further analysis.
Immediately after each incubation, reducing 4× SDS-loading buffer (8% SDS), containing 1 M β-mercaptoethanol or 75 mM dithiothreitol, was added to each sample and proteins were denatured at 70°C for 10 min. The samples were immediately analyzed by SDS-PAGE or frozen at −20°C. Frozen samples were heated again at 70°C before loading on the gel. The cleavage of protein substrates by PSA, i.e., the disappearance of the full-length protein bands, was quantified from scanned images of silver stained gels by the measurement of relative optical densities of the protein bands using ImageJ [40]. […]
Proteins were visualized either by silver staining or Western blotting. […] After 30 min incubation in 0.2% AgNO3, the gel was rinsed briefly with water and proteins were detected with development solution, containing 700 µl/l of 37% formaldehyde, 0.001% sodium thiosulfate and 3% anhydrous Na2CO3. […]

[6] = tested on: IGFBP-3; test: Immunofluorometric assay of intact IGFBP-3 after incubation with PSA and peptides; format: biochemical, human; conditions: 0.2 µM PSA, 2.2 µM IGFBP-3, 37°C, TBS; 22 h in text (24 h in method), n = 2
Procedure: To study the degradation of IGFBP-3 by PSA, we used a sandwich-type immunofluorometric assay (IFMA) that measures only intact IGFBP-3, but not that cleaved by PSA [43], [44]. […] After incubation, the samples were diluted 1∶1000 in IFMA assay buffer and IGFBP-3 concentrations were measured as previously described,[44].

[7] = tested on: HUVECs; test: HUVEC tube formation assay on Matrigel; format: cell-based, human
Procedure: Human umbilical vein endothelial cells (HUVECs) were isolated from umbilical cord veins and grown in Endothelial Cell Growth Medium (Promocell, Heidelberg, Germany) with 2% Ultroser G BioSepra serum substitute (PALL BioSepra, Cergy, France) and growth factors EGF and bFGF. For tube formation, HUVECs were grown on top of Matrigel (BD Biosciences) as described previously, [29].
To study the effect of PSA-cleaved protein fragments, 0.08 µM nidogen-1 or 0.4 µM galectin-3 (10 µg/ml each) were first incubated with 1 µM PSA for 24 h at 37°C in PBS (Lonza). Then PSA activity was blocked by one-hour incubation at room temperature with 2 µM monoclonal antibody 5C7 [38]. The mixture containing nidogen-1 or galectin-3 fragments with PSA blocked by antibody or the same amount of intact nidogen-1 or galectin-3 were added together with the cells onto gelled Matrigel and the cells were allowed to form tubular networks for 20 h. Control wells contained either PBS or 1 µM PSA. After overnight incubation, cell culture medium was collected from PBS and PSA control wells for SDS-PAGE and Western blotting. Images of tubular networks (100×magnification) were taken using an Axiovert 200 inverted light microscope connected to an AxioCam digital camera and visualized by AxioVision software (all from Zeiss, Göttingen, Germany).

[8] = tested on: plasminogen; test: Plasminogen cleavage control with MMP-3; format: biochemical, human; conditions: 1 µM MMP-3 or PSA, 1 µM plasminogen, 37°C, 22 h, TBS
Procedure: as §4, §5

**Q.** “4-morpholinecarbonyl-HSSKLQ-AMC [Fluorogenic substrate, fluorogenic PSA substrate, AMC = 7-amido-4-methylcoumarin]” was tested. Which “kcat/Km compared to literature” value ([1]; compared to that reported by Denmeade et al. [36]) did it give?
**A.** about five-fold higher

**Q.** And the kcat ([1]; kcat = Vmax/[PSA], substrate 0.125–2 mM, 175 nM PSA, 0.1% BSA-TBS, 5% DMSO, room temperature, mean ± SD of two experiments)?
**A.** 0.19 ± 0.09 s⁻¹

**Q.** And the Km ([1]; substrate 0.125–2 mM, 175 nM PSA, 0.1% BSA-TBS, 5% DMSO, 355/460 nm, room temperature, 10 min to 4 h, mean ± SD of two experiments)?
**A.** 1580 ± 40 µM

**Q.** And the kcat/Km ([1]; substrate 0.125–2 mM, 175 nM PSA, 0.1% BSA-TBS, 5% DMSO, room temperature, mean ± SD of two experiments)?
**A.** 122.0±59.4 s^−1M^−1

**Q.** What does the source list for `CC(C)C[C@@H]1NC(=O)[C@H](Cc2ccc(O)cc2)NC(=O)[C@H](CC(=O)O)NC(=O)[C@H](Cc2ccc(O)cc2)NC(=O)[C@H](CC(N)=O)NC(=O)[C@H](Cc2c[nH]cn2)NC(=O)[C@H](C)NC(=O)[C@H](Cc2ccccc2)NC(=O)[C@H](C(C)C)NC(=O)[C@@H](N)CSSC[C@@H](C(N)=O)NC(=O)[C@H](C(C)C)NC1=O` [B2-NH2] (H-CVFAHNYDYLVC-NH2; disulfide 1-12)?
**A.** Emax [2]: 391 ± 11%; EC50 [2]: 4.78 ± 1.55 µM; Emax [3]: 400 ± 14%; EC50 [3]: 5.13 ± 1.43 µM

**Q.** What does the source list for `CC[C@H](C)[C@@H]1NC(=O)[C@@H]2CSSC[C@H](NC(=O)[C@H](Cc3c[nH]cn3)NC(=O)[C@H](Cc3c[nH]cn3)NC(=O)[C@H](CCC(=O)O)NC1=O)C(=O)N[C@@H](Cc1c[nH]c3ccccc13)C(=O)N[C@@H]([C@@H](C)O)C(=O)N[C@H](C(=O)O)CSSC[C@H](N)C(=O)N[C@@H](C(C)C)C(=O)N[C@@H](C)C(=O)N[C@@H](Cc1ccc(O)cc1)C(=O)N2` [C4] (H-CVAYCIEHHCWTC-OH; disulfide 1-13, 5-10)?
**A.** Emax [2]: 610 ± 8%; EC50 [2]: 3.72 ± 0.5 µM; Emax [3]: 785 ± 7%; EC50 [3]: 5.62 ± 2.17 µM

**Q.** “CVFAHNADALVC (disulfide 1-12 (inferred)) [B2-NH2-control]” was tested. Which “binding to PSA” value [4] did it give?
**A.** All peptides, except the inactive B2-NH2-control peptide, bound to PSA

**Q.** What about the “Stimulation of PSA activity (summary in words)” value ([3]; towards chromogenic and fluorogenic peptide substrates (Figure 1, Table 2), B2 and B2-NH2-control: Figure 1A (chromogenic)) of the same compound?
**A.** did not stimulate PSA activity at all

**Q.** For “IGFBP-3: recombinant human insulin-like growth factor-binding protein-3”, which “time for degradation of 50% of the protein” value [5] is on record?
**A.** 22 h

**Q.** With “PSA: major form of active PSA (isoform PSA-B) purified from pooled human seminal fluid” as the compound, how does the “decrease of the content of intact IGFBP-3” value [6] read?
**A.** 50%

**Q.** And the tube formation ([7]; 1 µM PSA, 20 h, HUVECs on Matrigel)?
**A.** reduced tube formation

**Q.** And the “effect of PSA pre-incubation of gelled Matrigel on tube formation” value ([7]; overnight pre-incubation of Matrigel with PSA, then PSA inhibited with antibody, Mattsson et al. unpublished data)?
**A.** did not inhibit endothelial cell tube formation

**Q.** What about the cleavage of plasminogen [8] of the same compound?
**A.** but not PSA, cleaved 1 µM plasminogen

**Q.** Which “time for degradation of 50% of the protein” value [5] does the source give for fibronectin here?
**A.** 17 h
